How the values were obtained:
Assay in all cases: relative viability (nuclei count vs DMSO), 5 days (fraction); higher = more cells survive
Sunitinib + Foretinib = compound: CCN(CC)CCNC(=O)c1c(C)[nH]c(/C=C2\C(=O)Nc3ccc(F)cc32)c1C [Sunitinib] + COc1cc2c(Oc3ccc(NC(=O)C4(C(=O)Nc5ccc(F)cc5)CC4)cc3F)ccnc2cc1OCCCN1CCOCC1 [Foretinib] (partner 0.25 µM)
Procedure, shortened: (§1)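 One day after seeding in 1536-well plates, lung cancer cell lines were dosed by pin tool. Dosing was either single-drug or a fixed anchor-drug dose plus five library-drug doses (not always all listed) in √10 steps. After 5 days, nuclei were stained in one fix-and-stain step and counted on 4× images, and relative viability is the nuclei count of treated wells over that of vehicle wells, given as the median of duplicate plates.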

Sunitinib + Tozasertib = compound: CCN(CC)CCNC(=O)c1c(C)[nH]c(/C=C2\C(=O)Nc3ccc(F)cc32)c1C [Sunitinib] + Cc1cc(Nc2cc(N3CCN(C)CC3)nc(Sc3ccc(NC(=O)C4CC4)cc3)n2)n[nH]1 [Tozasertib] (partner 0.1 µM)
Procedure, shortened: as §1

Sunitinib + Luminespib = compound: CCN(CC)CCNC(=O)c1c(C)[nH]c(/C=C2\C(=O)Nc3ccc(F)cc32)c1C [Sunitinib] + CCNC(=O)c1noc(-c2cc(C(C)C)c(O)cc2O)c1-c1ccc(CN2CCOCC2)cc1 [Luminespib] (partner 0.01 µM)
Procedure, shortened: as §1

Sunitinib + AZD7762 = compound: CCN(CC)CCNC(=O)c1c(C)[nH]c(/C=C2\C(=O)Nc3ccc(F)cc32)c1C [Sunitinib] + NC(=O)Nc1cc(-c2cccc(F)c2)sc1C(=O)N[C@H]1CCCNC1 [AZD7762] (partner 0.2 µM)
Procedure, shortened: as §1

Row | Cell Line | relative viability (Sunitinib + Foretinib; first compound 0.02 µM) | relative viability (Sunitinib + Foretinib; first compound 0.06325 µM) | relative viability (Sunitinib + Foretinib; first compound 0.2 µM) | relative viability (Sunitinib + Foretinib; first compound 0.6325 µM) | relative viability (Sunitinib + Foretinib; first compound 2 µM) | relative viability (Sunitinib + Tozasertib; first compound 0.02 µM) | relative viability (Sunitinib + Tozasertib; first compound 0.06325 µM) | relative viability (Sunitinib + Tozasertib; first compound 0.2 µM) | relative viability (Sunitinib + Tozasertib; first compound 0.6325 µM) | relative viability (Sunitinib + Tozasertib; first compound 2 µM) | relative viability (Sunitinib + Luminespib; first compound 0.02 µM) | relative viability (Sunitinib + Luminespib; first compound 0.06325 µM) | relative viability (Sunitinib + Luminespib; first compound 0.2 µM) | relative viability (Sunitinib + Luminespib; first compound 0.6325 µM) | relative viability (Sunitinib + Luminespib; first compound 2 µM) | relative viability (Sunitinib + AZD7762; first compound 0.02 µM) | relative viability (Sunitinib + AZD7762; first compound 0.06325 µM) | relative viability (Sunitinib + AZD7762; first compound 0.2 µM) | relative viability (Sunitinib + AZD7762; first compound 0.6325 µM) | relative viability (Sunitinib + AZD7762; first compound 2 µM)
1 | A549 | 1.06 | 0.951 | 1.09 | 1.05 | 0.974 |  |  |  |  |  |  |  |  |  |  |  |  |  |  | 
2 | COR-L23 | 0.972 | 0.945 | 1.14 | 0.961 | 0.969 | 0.19 | 0.217 | 0.196 | 0.215 | 0.176 | 0.647 | 0.658 | 0.881 | 0.831 | 0.57 |  |  |  |  | 
3 | COR-L 105 | 1.07 | 1.22 | 0.952 | 1.12 | 1.12 | 0.365 | 0.378 | 0.371 | 0.401 | 0.41 | 0.665 | 0.706 | 0.744 | 0.914 | 0.686 |  |  |  |  | 
4 | Calu-6 | 0.836 | 0.951 | 0.913 | 0.963 |  |  |  |  |  |  |  |  |  |  |  |  |  |  |  | 
5 | HCC-44 |  |  |  |  |  | 0.923 | 1.01 | 1.44 | 1.07 | 0.499 | 0.949 | 1.1 | 1.5 | 0.972 | 1.14 | 1.05 | 1.08 | 1.01 | 1.01 | 1.05
6 | HCC-78 | 0.527 | 0.588 | 0.525 | 0.545 | 0.613 | 0.411 | 0.502 | 0.548 | 1.43 | 0.43 |  |  |  |  |  | 0.554 | 0.609 | 0.727 | 0.485 | 0.713
7 | HCC-366 | 0.864 | 0.908 | 0.919 | 0.827 | 0.871 | 0.12 | 0.0634 | 0.133 | 0.0819 | 0.0457 |  |  |  |  |  | 0.241 | 0.207 | 0.379 | 0.238 | 0.216
8 | IA-LM | 1.12 | 1.32 | 1.25 | 1.14 | 1.19 |  |  |  |  |  |  |  |  |  |  |  |  |  |  | 
9 | NCI-H520 | 0.593 | 0.843 | 0.798 | 1 | 0.605 | 0.44 | 0.384 | 0.435 | 0.375 | 0.421 | 0.22 | 0.231 | 0.214 | 0.22 | 0.228 |  |  |  |  | 
10 | NCI-H522 |  |  |  |  |  | 0.6 | 0.568 | 0.499 | 0.521 | 0.682 | 0.951 | 1.11 | 1.21 | 1.14 | 1.28 | 0.839 |  | 0.73 | 0.848 | 0.942
11 | NCI-H661 | 1.06 | 1.07 | 1.01 |  | 1.04 | 0.357 | 0.379 | 0.356 | 0.363 | 0.401 | 0.896 | 0.934 | 0.949 | 0.896 | 0.83 |  |  |  |  | 
12 | NCI-H1299 | 1.07 | 1.15 | 1.14 | 1.08 | 1.12 |  |  |  |  |  |  |  |  |  |  |  |  |  |  | 
13 | NCI-H1563 | 0.822 | 1.05 | 0.999 | 1.03 | 0.993 |  |  |  |  |  | 0.54 | 0.566 | 0.5 | 0.517 | 0.479 |  |  |  |  | 
14 | NCI-H1648 |  |  |  |  |  |  | 0.477 | 0.482 | 0.596 | 0.667 |  |  |  |  |  | 0.702 | 0.814 | 0.694 | 0.715 | 0.828
15 | NCI-H1650 | 1.23 | 1.14 | 1.09 | 0.977 | 1.08 | 0.323 | 0.416 | 0.382 | 0.321 | 0.245 | 0.219 | 0.201 | 0.206 | 0.198 | 0.217 |  |  |  |  | 
16 | NCI-H1703 | 0.333 | 0.25 | 0.284 | 0.306 | 0.254 |  |  |  |  |  |  |  |  |  |  | 0.136 | 0.146 | 0.127 | 0.138 | 0.122
17 | NCI-H1792 |  |  |  |  |  |  |  |  |  |  |  | 0.38 | 0.622 | 0.483 | 0.426 | 0.503 | 0.847 | 1.02 | 0.835 | 0.512
18 | NCI-H2009 | 1.19 | 1.25 | 1.31 | 1.27 | 1.3 | 0.695 | 0.747 | 0.858 | 0.78 | 0.716 | 1.02 | 1.05 | 1.18 | 1.04 | 1.04 |  |  |  |  | 
19 | NCI-H2023 | 0.739 | 0.887 | 0.981 | 0.659 | 0.78 | 0.304 | 0.301 | 0.382 | 0.239 | 0.181 | 0.602 | 0.671 | 1.08 | 0.765 | 0.611 |  |  |  |  | 
20 | NCI-H2228 | 0.844 | 0.833 | 0.963 | 0.842 | 0.657 | 0.23 | 0.266 | 0.279 | 0.207 | 0.223 | 0.138 | 0.145 | 0.148 | 0.177 | 0.114 |  |  |  |  | 
21 | SK-LU-1 |  | 0.901 | 1.06 | 0.834 | 0.581 | 0.377 | 0.424 | 0.433 | 0.379 | 0.332 | 0.21 | 0.187 | 0.21 | 0.216 | 0.2 |  |  |  |  | 
22 | SK-MES-1 | 0.932 | 0.932 | 1.03 | 1.09 | 0.894 | 0.892 |  | 0.979 | 1 |  | 0.729 | 0.708 | 0.795 |  | 0.7 |  |  |  |  | 
23 | SW 1573 | 0.879 | 0.928 | 0.889 | 1.09 | 0.998 | 0.153 | 0.22 | 0.205 | 0.155 | 0.195 | 0.156 | 0.248 | 0.247 | 0.189 | 0.186 |  |  |  |  | 
24 | UMC-11 | 0.962 | 1.03 | 1.11 | 1.06 | 0.956 | 0.206 | 0.207 | 0.198 | 0.199 | 0.197 | 1.01 | 1.02 | 1.14 | 1.1 | 0.943 |  |  |  |  | 

Reference: the supplement of paper PMC10307832
